Paper PMC11241255 (International Journal of Molecular Sciences, 2024)

Assays:
SH-SY5Y cells = assay: Mitochondrial membrane potential (ΔΨm) assay (TMRE); format: cell-based, Human; details: 12 h pre-treatment, 200 μM H2O2 2 h
Protocol: (§1) Human neuroblastoma SH-SY5Y cells (ATCC CRL-2266, Manassas, VA, USA) were maintained in Dulbecco’s modified Eagle’s medium (DMEM, Gibco) supplemented with 10% fetal bovine serum (FBS), 1% kanamycin, and 1% penicillin (Thermo Fisher Scientific, Waltham, MA, USA) at 37 °C with 5% CO2, and a 95% humidified atmosphere in the incubator. The experiments were executed at 80–90% cell confluency.
The mitochondrial membrane potential was measured using the tetramethylrhodamine, methyl ester (TMRE) staining method. The cells (1 × 10^4 cells/well) were seeded in a 96-well sterile plate; after which, they were pre-treated with the extract for 12 h. The extracts and phytocompounds were removed, followed by a 2 h treatment with H2O2 (200 μM). A 1 μM amount of TMRE was added to the cells and incubated for 1 h at 37 °C. The fluorescence was assessed (Ex 549 nm, Ems 575 nm) using a microplate reader (Synergy-H1 BioTek, Agilent, USA). The ΔΨm was calculated as a percentage of the untreated control cells (100%) in triplicate measurements.

[1] = test system: AChE (bovine erythrocyte); design: method as in doi:10.1021/jf960398b; details: cited from earlier work
SH-SY5Y cells lysate = assay: Malondialdehyde (MDA) in cell lysate (TBA:TCA); format: cell-based, Human; details: 24 h pre-treatment, 6 h H2O2 100 μM
Protocol: as §1
The cells (5 × 10^4 cells/well) were seeded in a 6-well sterile plate and incubated for 18–24 h. After stabilization, cells were pre-treated with the extracts and phytocompounds for 24 h before 6 h incubation with H2O2 (100 μM). The culture media was removed, and the cells were washed with cold PBS (1X). The cells were placed on ice and incubated with pre-chilled RIPA buffer for 10 min. Transfer the lysate in microfuge tubes and centrifuge (Labogene 1730R, BMS, Paju-si, Republic of Korea) for 10 min at 20,000× g, 4 °C. The supernatant was collected and stored at −80 °C.
MDA levels were measured using TBA: TCA reagent as described previously. In the reaction, MDA reacts with two molecules of thiobarbituric acid (TBA) to give a pink pigment that absorbs at 532 nm. The standard curve of MDA (1–100 μM) was used to calculate lipid peroxidation in the lysate.

SMILES: C=C(C)[C@H]1CC=C(C)C(=O)C1 [carvone, D-carvone]
- MMP (% ΔΨm vs untreated cells) (SH-SY5Y cells; 0.1 µg/mL): 71.61 ± 0.70%
- MMP (% ΔΨm vs untreated cells) (SH-SY5Y cells; 1 µg/mL): 80.80 ± 1.20%
- MMP (% ΔΨm vs untreated cells) (SH-SY5Y cells; 10 µg/mL): 85.18 ± 4.96%
- MMP (% ΔΨm vs untreated cells) (SH-SY5Y cells; 30 µg/mL): 87.19 ± 6.26%
- AChE IC50 [1]: 277.9 µg/mL
- IC50 [1]: 1850 µM
- type of AChE inhibition [1]: competitive inhibitor
- MDA level (SH-SY5Y cells lysate; 0.1 µg/mL): 1.71 µM
- MDA level (SH-SY5Y cells lysate; 1 and 10 µg/mL): ~ 1.33 µM
